Source: patent US6677381B1 (Jame Fine Chemicals, Inc., priority 2001, dated 2004)
Where two headings read alike, the source gives them in different places.

Legend:
[1] = Solubility in water and organic solvents; assay type: physicochemical
Description: The guaifenesin tannate of the invention is a light-tan colored powder which is soluble in water and alcohols, but is insoluble in methylene chloride, chloroform or toluene. […]

[2] = cited from earlier work; for solubility in alcohols: alcohols such as methanol, ethanol, isopropanol

Row | solubility in alcohols [1] | solubility in toluene [1] | solubility in water [1] | solubility in chloroform [1] | solubility in methylene chloride [1] | solubility in alcohols ([1]; alcohols, physical properties comparison) | solubility in chloroform ([1]; chloroform) | solubility in methylene chloride ([1]; methylene chloride) | solubility in toluene ([1]; toluene) | solubility in water ([1]; water, physical properties comparison) | Compound | solubility in alcohols [2] | solubility in water [2] | solubility in water ([2]; in words)
1 | soluble | sparingly soluble | soluble | – | – | – | – | – | – | – | COc1ccccc1OCC(O)CO (centres unmarked) [guaifenesin, 3-(2-methoxyphenoxy)-1,2-propanediol] | readily soluble | about 5 wt. % | –
2 | soluble | insoluble | soluble | insoluble | insoluble | – | – | – | – | – | O=C(OC[C@H]1O[C@@H](OC(=O)c2cc(O)c(O)c(OC(=O)c3cc(O)c(O)c(O)c3)c2)[C@H](OC(=O)c2cc(O)c(O)c(OC(=O)c3cc(O)c(O)c(O)c3)c2)[C@@H](OC(=O)c2cc(O)c(O)c(OC(=O)c3cc(O)c(O)c(O)c3)c2)[C@@H]1OC(=O)c1cc(O)c(O)c(OC(=O)c2cc(O)c(O)c(O)c2)c1)c1cc(O)c(O)c(OC(=O)c2cc(O)c(O)c(O)c2)c1 [tannic acid] | highly soluble | – | highly soluble
3 | – | – | – | – | – | soluble | insoluble | insoluble | insoluble | soluble | guaifenesin tannate | – | – | –
